Test results taken from US7772001B2, “Directed differentiation of embryonic stem cells into an endoderm cell” (Yissum Research Development Company Of the Hebrew …, priority 2000, dated 2010).

Assays:
Assay type in all cases: cell-based
[1] = system: human EBs (from human ES cells); assay: In situ hybridization to NF-L RNA in cells derived from dissociated EBs; details: for proportion of neuronal cells in the cultures (NF-L RNA): controls 21%
Procedure: (§1) In Situ Hybridization and Immunohistochemistry: EBs or their plated derivatives were fixed in 4% paraformaldehyde. In in-situ experiments, hybridization to a 50-mer 2′-O-methyl 5′-biotinylated cDNA of NF-L (SEQ ID NO:1) (CCTGCGTGCGGATGGAC […]) followed. The probes were then detected with streptavidin-conjugated alkaline phosphatase using a fluorogenic substrate (Grifman et al, 1998). For immunohistochemistry, EBs were either embedded in paraffin and sectioned at 10 μM, or stained directly on the plates. Mouse monoclonal anti-NF-II was used as a primary antibody, and was detected with Cy3-conjugated goat anti-mouse igG.
(§2) Cell Culture. Human ES cells were grown and EBs were generated as described in Example 1. Four days following initiation of aggregation growth factors were administered: retinoic acid (Sigma): 10-^7 M (Bain et al, 1995) or 10^−6 (Bain et al, 1996); TGFβ1 (Sigma): 2 ng/ml (Slager et al, 1993); βNGF (New Biotechnology, Israel): 100 ng/ml (Wobus et al, 1988). After 21 days, EBs were plated on 5 μm/cm^2 collagen treated plates, either as whole EB's, or as single cells dissociated with trypsin/EDTA. The cultures were maintained for an additional week or 2 days, respectively.
In situ hybridization and immunohistochemistry was carried out according to Example 1. RT-PCR analysis. cDNA was synthesized from total RNA and PCR performed according to Example I. Primers for GAPDH, serotonin receptors 2A and 5A (5HT2A7 5HT5A, respectively) and dopamine receptor D1 (DRD1) were purchased from Clontech. The primers for dopa decarboxylase (DDC) were: […] (SEQ ID NO:2) and […] (SEQ ID NO:3).
Differentiation was initially assayed by in-situ hybridization to neurofilament light chain (NF-L) RNA, which is expressed by both immature and fully differentiated neurons (Carden et al, 1987).

human EBs = assay: NF-H immunostaining of plated EBs, neuronal network complexity; details: RA treatment and plating on collagen; untreated EBs 54%
Procedure: as §1, §2
In situ hybridization and immunohistochemistry was carried out according to Example 1. […]

[2] = system: human differentiated embryonic (DE) cells; assay: RT-PCR of cell specific genes in DE cells treated with growth factors; details: for blood formation / differentiation into ectodermal cells / differentiation into kidney cells / differentiation into mesodermal cells / differentiation into skin cells / differentiation of brain cells (neurons) / differentiation of heart cells / differentiation of muscle / differentiation into chondrocytes / differentiation into endodermal cells / differentiation toward liver (hepatocytes) / differentiation toward pancreas (islet cells) / differentiation into Mullerian duct cells: vs control without growth factor (FIG. 4); for expression of uro-genital marker WT-1 / set of cell specific transcripts produced: DE cells, 10 days with factor; for overall induction or repression of cell specific expression (FIG. 3B): at least three experiments
Procedure: (§3) Cell Culture: Human embryonic stem cells were grown on a feeder layer of mouse embryonic fibroblasts (MEF) and then transferred to gelatin coated plates and cultured further to reduce the number of murine cells in the culture. Differentiation into embryoid bodies (EBs) was initiated by transfer to Petri dishes, where the embryoid bodies remained in suspension. After 5 days, the EBs become dissociated and cells are cultured as a monolayer forming differentiated embryonic (DE) cells. This protocol allows for initial differentiation of the human embryonic stem cells as aggregates and further differentiation as a monolayer wherein cells can be exposed to exogenous growth factors. The DE cells were cultured for 10 days in the presence of 8 different growth factors: NGF, bFGF, Activin-A, TGFβ1, HGF, EGF, BMP4 and retinoic acid (RA) (FIG. 1A).
To induce formation of EBs, ES cells were transferred using trypsin/EDTA (0.1%/l mM) to plastic Petri dishes to allow their aggregation and prevent adherence to the plate. Human EBs were grown in the same culture medium, except that it lacked leukemia inhibitory factor (LIF) and bFGF. The EBs were cultured for 5 days and then dissociated and plated on tissue culture plates coated with 50 μg/ml Fibronectin (Boehringer Mannheim). The cells were grown in the presence of the following human recombinant growth factors used singly or in groups: Basic Fibroblast Growth Factor (bFGF) (Swoboda et al, 1999)—10 ng/ml (Gibco BRL); Transforming Growth Factor Beta 1 (TGFβ1) (Swoboda et al, 1999)—2 ng/ml (R&D Systems); Activin-A (Slager et al, 1993)—20 ng/ml (R&D Systems); Bone Morphogenic Protein 4 (BMP-4) (Slager et al, 1993; Bain et al, 1996)—10 ng/ml (R&D Systems); Hepatocyte Growth Factor (HGF)/Scatter Factor (Doetsch et al, 1999)—20 ng/ml (R&D Systems); Epidermal Growth Factor (EGF) (Doetsch et al, 1999)—100 ng/ml (R&D Systems); βNerve Growth Factor (NGF) (Johansson et al, 1999)—100 ng/ml (R&D Systems); Retinoic acid (RA) (Deacon et al, 1998; Peschanski et al, 1995)—1 μM (Sigma). Under these conditions the differentiated embryonic (DE) cells were grown for another 10 days. All of the examined growth factors are absent from the KnockOut™ serum replacement in which the embryonic cells were cultured.
RT-PCR Analysis: Total RNA was extracted using Atlas™ Pure Total RNA Kit (Clontech). cDNA was synthesized from 1 μg total RNA, using Atlas™ RT-for-PCR Kit (Clontech). cDNA samples were subjected to PCR amplification with DNA primers selective for the human genes. For each gene, the DNA primers were derived from different exons to ensure that the PCR product represents the specific mRNA species and not genomic DNA. PCR was performed using the Clontech Advantaq+™ RT-PCR kit and using a two-step cycle at 68° C.
Primers were synthesized for the following genes: neurofilament heavy chain (NF-H), phosphoprotein enriched in astrocytes (PEA-15), Keratin, Dopamine β Hydroxylase (DβH), Follicular Stimulating Hormone (FSH), Enolase, Myosin light polypeptide2 (myosin), Cartilage Matrix Protein (CMP), Renin, Kallikrein, Wilms Tumor 1 (WTI), β-Globin (β-Glob), δ-Globin (δ-Glob), Cardiac Actin (cACT), Albumin, α1 anti-trypsin (α1 AT), Lipase, Amylase, PDX-1, Insulin, Glucagon, Surfactant, Parathyroid Hormone (PTH), α-feto protein (αFP), Retinoic Acid Receptor type alpha (RAR), Hepatocyte Growth Factor Receptor (c-Met), Nerve Growth Factor Receptor (NGFR), Fibroblast Growth Factor Receptor type I (FGFRI), Transforming Growth Factor Receptor type II (TGFRII), Epidermal Growth Factor Receptor type (EGFR), Activin Receptor type IIB (ACTRIIB), Bone Morphogenic Protein 4 Receptor type II (BMP4RII), Octamer Binding Protein 4 (Oct 4), Glyceraldehyde 3-phosphate dehydrogenase (G3PD), β-Actin. Also incorporated by reference, see http://www.ls.huji.ac.il/˜nissimb/factors_es/primers.html-ente.
The differentiation induced by growth factors was further examined by determining the expression of a panel of 24 cell specific genes using RT-PCR. […]

[3] = system: human differentiated embryonic (DE) cells; assay: Morphology of DE cells cultured with growth factors; details: several days on plastic, continuous exposure to growth factor (FIG. 1B)
Procedure: as §3
To induce formation of EBs, ES cells were transferred using trypsin/EDTA (0.1%/l mM) to plastic Petri dishes to allow their aggregation and prevent adherence to the plate. Human EBs were grown in the same culture medium, except that it lacked leukemia inhibitory factor (LIF) and bFGF. The EBs were cultured for 5 days and then dissociated and plated on tissue culture plates coated with 50 μg/ml Fibronectin (Boehringer Mannheim). […]

Molecule	blood formation [2]	differentiation into ectodermal cells [2]	differentiation into kidney cells [2]	differentiation into mesodermal cells [2]	differentiation into skin cells [2]	differentiation of brain cells (neurons) [2]	differentiation of heart cells [2]	differentiation of muscle [2]	cell morphology found in treated culture [3]	expression of uro-genital marker WT-1 [2]	differentiation into chondrocytes [2]	differentiation into endodermal cells [2]	differentiation toward liver (hepatocytes) [2]	differentiation toward pancreas (islet cells) [2]	set of cell specific transcripts produced [2]	overall induction or repression of cell specific expression (FIG. 3B) [2]	differentiation into Mullerian duct cells [2]	further results
CC1=C(/C=C/C(C)=C/C=C/C(C)=C/C(=O)O)C(C)(C)CCC1 [RA, retinoic acid, reference compound]																		proportion of neuronal cells in the cultures (NF-L RNA) ([1]; high concentration of RA (10^−6 M)): 52%; number of EBs containing NF-H positive neurons (human EBs): 76%
EGF: human recombinant Epidermal Growth Factor, 100 ng/ml (NSDSECPLSHDGYCLHDGVCMYIEALDKYACNCVVGYIGERCQYRDLKWWELR; UniProt P01133 971-1023, looked up)	inhibits	allow or induce	inhibits	allow or induce	stimulate	inhibits	stimulate	permits normal levels										
HGF: human recombinant Hepatocyte Growth Factor/Scatter Factor, 20 ng/ml	significant inhibition	allows	completely inhibited	allows	induced at their normal level	significant inhibition			large populations of small cells with pronounced nuclei	expressed	significant inhibition	allows	significant inhibition	significant inhibition				
NGF: human recombinant β nerve growth factor, 100 ng/ml	stimulate	allows	direct the differentiation	allows	completely inhibited	direct the differentiation	stimulate	down-regulate		expressed	down-regulate	allows	direct the differentiation	direct the differentiation	induce expression of a variety of transcripts indicative of cells from all three germ layers	induces the greatest variety of cell specific gene expression	direct the differentiation	number of neuronal cells that develop from human embryonic cells ([1]; summary statement): enhance; proportion of neuronal cells in the cultures (NF-L RNA) ([1]; βNGF 100 ng/ml): 39%; expression of adrenal markers [2]: not; expression of endodermal markers [2]: induce
TGFβ1: human recombinant Transforming Growth Factor Beta 1, 2 ng/ml	inhibit	inhibit	inhibit	allow differentiation into selected mesodermal cells							inhibit	inhibit			relatively reduced set of specific transcripts	mostly repress or fail to direct differentiation of as many cell types	inhibit	effect on neuronal differentiation (NF-L RNA) ([1]; TGFβ1 2 ng/ml): no effect
bFGF: human recombinant Basic Fibroblast Growth Factor, 10 ng/ml		allow or induce	inhibits	allow or induce	permits formation of normal levels	permits formation of normal levels	stimulates	permits formation of normal levels	fibroblast like cells									
